The target in the test is T1, ACCase (chloroplastic acetyl coenzyme A carboxylase).
T1 construct: plastid and cytosolic forms not separated; S biotype has Arg1789, Met2065, Gly2067, Val2077
The experiment in a line: NaH14CO3 incorporation into acid-stable product (malonyl-CoA). The settings on record: 5 mM acetyl-CoA, 1.5 mM ATP, 5 mM MgCl2, 15 mM bicarbonate, pH 8.3, 34°C, read-out: I50. In kind it is biochemical, Cynosurus echinatus. The text has this:
NaH14CO3 incorporation into acid-stable product (malonyl-CoA) on ACCase (chloroplastic acetyl coenzyme A carboxylase)

SMILES strings stand for the structures. Like-named read-outs stand apart in the source and are kept apart here.

With `CCc1cc(C)cc(CC)c1-c1c(OC(=O)C(C)(C)C)n2n(c1=O)CCOCC2` [Pinoxaden], the IC50 is 9.1 µM (R biotype, stated gain) and 0.39 µM (S biotype).
Take `CC(Oc1ccc(Oc2nc3ccc(Cl)cc3o2)cc1)C(=O)O` (racemic) [Fenoxaprop]: the IC50 (R biotype, stated gain) worked out at 24.2 µM and the IC50 (S biotype) turned out to be 1.58 µM.
The corresponding values for `CCCC(=NOCC)C1=C(O)CC(C2CCCSC2)CC1=O` (stereo not drawn) [Cycloxidim] are 7.89 µM and 2.5 µM.
Take `CCCC(=NOCC)C1=C(O)CC(CC(C)SCC)CC1=O` (stereo not drawn) [Setoxidim]: the IC50 by setting is: (R biotype, stated gain) 3500 µM; (S biotype) 800 µM.
The corresponding values for `C[C@@H](Oc1ccc(Oc2ccc(C#N)cc2F)cc1)C(=O)O` [Cihalofop] are 70.8 µM and 10.2 µM.
Regarding `CC(Oc1ccc(Oc2ccc(Cl)cc2Cl)cc1)C(=O)O` (stereo not drawn) [Diclofop], the IC50 reads like this: (R biotype, stated gain) 63.5 µM; (S biotype) 4.53 µM.

The record behind these values is article PMC4826872, “Underlying Resistance Mechanisms in the Cynosurus echinatus Biotype to Acetyl CoA Carboxylase-Inhibiting Herbicides” (Frontiers in Plant Science, 2016).
